Here are results for 5 compounds from PMC8137473, “Preclinical trial of a MAP4K4 inhibitor to reduce infarct size in the pig: does cardioprotection in human stem cell-derived myocytes predict success in large mammals?” (Basic Research in Cardiology, 2021).

Where “and” joins values, the source holds several entries; their conditions need not be identical. Equal entries are not always repeated.

What is called IC50 is the point on the concentration scale where inhibition reaches its midpoint. By EC50 is commonly meant the midpoint of the concentration-response curve.

Series [1] concerns the target MAP4K4 (Homo sapiens, UniProt O95819). Kind of series: cell-free biochemical assay, MAP4K4 inhibition. To be noted: cell-free biochemical assays; read-out: IC50 against MAP4K4. The text has this:
DMX-10001, a rapidly hydrolyzed phosphate pro-drug of DMX-5804, was produced by Domainex Ltd, by a modification of the latter’s synthetic route, attaching a hydrolysable phosphate group via a linker to the core of DMX-5804 (Fig. 1a). This removes a key hydrogen bonding group and prevents DMX-10001 from binding to the hinge region of the MAP4K4 kinase domain. […] Furthermore, this modest value is likely driven by minute levels of DMX-5804 either present in the sample or generated during by hydrolysis during the assay.

The nature of series [2]: aqueous solubility. The format is physicochemical. On the procedure:
The chemical structures of DMX-5804 and DMX-10001 are compared in Fig. 1a, highlighting the phosphate moiety of the pro-drug. The aqueous solubility of DMX-10001 was > 400-fold greater than that of DMX-5804, allowing it to be infused i.v. without prohibitive fluid volumes. Cleavage to DMX-5804 was detectable in rats within 5 min and largely complete within 60 min (Fig. 1b). Data from i.v. infusion at a range of dose levels in the pig were simultaneously fit to a three-compartment pharmacokinetic model. Plasma protein binding in pig was used to determine free drug levels (not shown). Various dosing regimens were simulated to avoid an initial spike in DMX-5804 whilst rapidly achieving the efficacious drug levels seen in mice after oral gavage (Fig. 1c).

The nature of series [3]: plasma levels of DMX-5804 in swine during DMX-10001 infusion (efficacy study). It is filed as in vivo, pig. Here is the method: Compound concentrations after dosing were measured as follows by liquid chromatography–mass spectrometry (Pharmidex, London, UK). To 50 µL aliquots of plasma was added 200 µL of internal standard solution (methanol containing 500 ng/mL tolbutamide). Samples were then mixed (150 rpm, 20 min) and centrifuged (3000 rpm, 15 min). 75 µL of the resulting supernatant was added to 75 µL 10 mM ammonium acetate + 0.5% ammonia) and mixed (450 rpm, 15 min). Calibration standards covering the expected concentration range were prepared by spiking analyte into control matrix, with extraction and analysis in the same way as the plasma samples.
Analysis was done by liquid chromatography–mass spectrometry using a Shimadzu Nexera X2 ultra-high-pressure liquid chromatography system coupled to a Shimadzu LCMS 8060 triple quadruple mass spectrometer (Shimadzu, Milton Keynes, UK) with Waters Acquity BEH C18 (50 × 2.1)mm, 1.7 µm column (Waters, Elstree, UK) and mobile phase components 10 mM ammonium acetate + 0.5% ammonia (A) and methanol + 0.5% ammmonia (B). Gradient was 0–0.5 min 30% B; 0.5 to 2.5 min increase to 80% B; 2.5–2.6 min increase to 98% B; 2.6–3 min 98% B; 3–3.1 min decrease to 30% B; 3.1–3.5 min 30% B. Flow rate was 0.4 mL/min. Injection volume was typically 5 µL. Detection was by multiple reaction monitoring, DMX-5804 361.9 > 304.1 (positive ion), DMX-10001 470.1 > 258.0 (negative ion), and tolbutamide 271.0 > 91.0 (positive ion). Retention times were DMX-5804 2.9 min, DMX-10001 2.1 min, and tolbutamide 1.8 min. Data processing was done by Shimadzu LabSolutions Software (Shimadzu, Milton Keynes, UK).
Results were corrected for plasma protein binding by rapid equilibrium dialysis to calculate free drug levels, and were subjected to iterative computer modeling (XenoGesis, Alderley Park, UK) using Phoenix64 WinNonlin (Certara, Princeton, NJ), to devise the infusion protocol.
At several time-points (see Fig. 2), blood samples were taken in lithium-heparin-coated tubes (BD, Plymouth, UK) to analyze plasma levels of DMX-10001 (pro-drug) and DMX-5804 (active compound) and in EDTA-coated tubes (BD, Plymouth, UK) to measure heart-type fatty acid binding protein (hFABP). All blood samples were kept on ice immediately after withdrawal and were centrifuged for 10 min at 3000 rpm and 4 °C within 6 h. Plasma was aliquoted and cryopreserved at − 80 °C until analysis. Levels of DMX-10001 and DMX-5804 were determined by liquid chromatography–mass spectrometry (Pharmidex, London, UK). Porcine hFABP was analyzed as described: plasma samples were thawed on ice, diluted 10 × using the standard diluent provided with the kit, and analyzed by enzyme-linked immunosorbent assays according to the manufacturer’s instructions (Life Diagnostics, West Chester, PA). Absorbance was measured at 450 nm with a microplate photometer (Multiskan EX, Thermo Scientific, Etten-Leur, The Netherlands).

On the set-up of series [4]: method as in PMID 30853557. To be noted: mice, twice daily oral dosing of DMX-5804; cited from earlier work.
Series [5] relates to hPSC-CMs. More on the design: method as in PMID 30853557. As to conditions: cited from earlier work.
In series [6] the test system is mouse myocardial infarction. More on the design: method as in PMID 30853557. To be noted: mice, even given an hour after reperfusion; cited from earlier work.
Series [7] relates to 376 kinases. More on the design: method as in PMID 30853557. As to conditions: cited from earlier work.
Series [8] deals with engineered human heart tissue. On the set-up: method as in PMID 30853557. To be noted: cited from earlier work.
In series [9] the test system is pigs. As to conditions: cited from earlier work; for cardioprotection findings in pigs: 16 (TRO40303), 5, 20 (cyclosporine), 21, 29 (cariporide).
The test system of series [10] is humans. As to conditions: cited from earlier work; for cardioprotection in human trials: 16 (TRO40303), 5, 20 (cyclosporine), 21, 29 (cariporide).
Where [11] appears, read: pigs, pro-drug DMX-10001 infusion (60 mg/kg/h 0.5 h + 17 mg/kg/h 23.5 h).

Chain of MAP4K4 (O95819 whole entry, species assumed, the tested form may be a part): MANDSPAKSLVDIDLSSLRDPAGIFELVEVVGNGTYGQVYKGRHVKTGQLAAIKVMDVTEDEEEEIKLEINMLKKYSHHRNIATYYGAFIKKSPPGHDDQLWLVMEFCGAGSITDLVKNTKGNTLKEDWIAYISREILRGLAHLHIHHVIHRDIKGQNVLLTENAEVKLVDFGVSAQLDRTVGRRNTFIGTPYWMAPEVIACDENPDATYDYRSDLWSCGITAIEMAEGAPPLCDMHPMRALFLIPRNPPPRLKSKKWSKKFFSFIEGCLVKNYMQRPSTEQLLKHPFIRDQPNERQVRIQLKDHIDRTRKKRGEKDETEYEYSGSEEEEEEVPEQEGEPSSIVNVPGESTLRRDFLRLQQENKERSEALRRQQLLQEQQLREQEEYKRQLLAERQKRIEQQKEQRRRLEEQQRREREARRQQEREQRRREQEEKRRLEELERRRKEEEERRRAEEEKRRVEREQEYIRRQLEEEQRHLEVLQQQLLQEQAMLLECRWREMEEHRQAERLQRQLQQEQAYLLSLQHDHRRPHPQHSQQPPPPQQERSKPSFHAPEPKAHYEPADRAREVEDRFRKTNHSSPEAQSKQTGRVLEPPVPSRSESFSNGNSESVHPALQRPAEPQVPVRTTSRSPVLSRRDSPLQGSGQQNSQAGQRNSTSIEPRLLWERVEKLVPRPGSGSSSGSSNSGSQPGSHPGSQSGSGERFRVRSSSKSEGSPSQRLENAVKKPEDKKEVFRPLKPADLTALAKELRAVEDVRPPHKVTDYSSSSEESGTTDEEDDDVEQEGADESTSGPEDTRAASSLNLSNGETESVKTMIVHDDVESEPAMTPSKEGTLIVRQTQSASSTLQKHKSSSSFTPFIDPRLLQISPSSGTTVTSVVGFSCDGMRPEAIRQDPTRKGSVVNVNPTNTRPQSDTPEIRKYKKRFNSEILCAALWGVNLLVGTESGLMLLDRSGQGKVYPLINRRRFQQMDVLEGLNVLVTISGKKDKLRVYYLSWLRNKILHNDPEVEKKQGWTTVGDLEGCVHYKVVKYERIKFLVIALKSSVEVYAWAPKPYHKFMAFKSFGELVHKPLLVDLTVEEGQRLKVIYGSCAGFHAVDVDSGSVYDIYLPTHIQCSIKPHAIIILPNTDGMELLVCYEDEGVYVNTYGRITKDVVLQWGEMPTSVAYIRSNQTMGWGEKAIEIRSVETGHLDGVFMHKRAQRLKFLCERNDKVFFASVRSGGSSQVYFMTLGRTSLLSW

As for `COCCOc1ccc(-c2cn(-c3ccccc3)c3nc[nH]c(=O)c23)cc1` [DMX-5804], in series [1], the IC50 turned out to be 3 nM. Besides, the aqueous solubility result in series [2] is on record as “inadequate for i.v. delivery”. For the same compound, the “target level of DMX-5804, based on successful reduction of IS in mice” value in [3] (after infusion with DMX-10001) is on record as “achieved in all animals”. In [3] (at the corresponding times after injury), the “levels of DMX-5804 generated in pigs relative to those in mice” value is recorded as “at least tenfold”. In addition, in series [3] (setting [11]), the “free AUC0-24 of DMX-5804” value is on record as 27,900 h.nM and the “free Cav of DMX-5804” value is recorded as 1,160 nM. For the same compound, the “DMX-5804 concentrations relative to the levels that rescued hPSC-CMs and reduced IS in mice” value in [3] (swine, all times tested beginning 30 min after the start of DMX-10001 infusion) is “> fivefold”. Besides, in series [4], the “free AUC0–22 of DMX-5804” value is recorded as 2,200 h.nM. Also, the “death from oxidative stress in hPSC-CMs” value in series [5] is given as “suppressed death from oxidative stress”. For the same compound, the half-maximal effective concentration (EC50) in series [5] (vCor.4U cells treated with 400 μM H2O2, read-out: EC50 for reducing cell death) was 500 nM. Further, the “reduction of infarct size (IS)” value in [6] is 50% and > 50%. Also, the “selectivity among 376 kinases” value in series [7] was “interfering potently just with MINK1/MAP4K6 and TNIK/MAP4K7”. Besides, the “cell death in engineered human heart tissue” value in [8] is “blocked cell death”.

With `Nc1ncnc2c1ncn2[C@@H]1O[C@H](CO)[C@@H](O)[C@H]1O` [adenosine], the protection in swine entry in series [9] (bolus) is given as “gave no protection”.

Regarding `CC(C)c1ccc(C(=O)NC(=N)N)cc1S(C)(=O)=O` [cariporide], the “cardioprotection findings in pigs” value in [9] is listed as “weak or negative findings”. In addition, in series [10], the “cardioprotection in human trials” value is reported as “failures of cardioprotection”.

Regarding liraglutide, in series [9], the results in pigs was “negative results”. The “myocardial salvage in humans” value in [10] is “improved myocardial salvage”.

On to `CC(C)CCC[C@@H](C)[C@H]1CC[C@H]2[C@@H]3CC/C(=N\O)[C@](C)(CCCO)[C@H]3CC[C@]12C` [TRO40303], for which, in series [9], the “cardioprotection findings in pigs” value was “weak or negative findings”. Moreover, the “cardioprotection in human trials” value in series [10] is on record as “failures of cardioprotection”.
